Source: publication PMC4631615 (Bipolar disorders, 2015)
Where “and” joins values, the source holds several entries; their conditions need not be identical. Equal entries are not always repeated. Marks after values point to notes of the source that are not given here.

Columns and labels:
pregnant SWV mice [1] = assay: Maternal body weight and weight gain, teratogenicity study; type: in vivo, mouse; conditions: mean ± SD
pregnant SWV mice [2] = assay: Pregnancy outcomes; type: in vivo, mouse; conditions: for Dead fetuses/litter / Fetus weight / Implantations/litter / Live fetuses/litter / Resorptions/litter: mean ± SD
SWV mouse fetuses [3] = assay: Skeletal examination of fetuses; type: in vivo
SWV mouse fetuses [4] = conditions: mouse, in vivo
acyl-CoA synthetase 4 = conditions: cited from earlier work
various animal models = conditions: cited from earlier work
[5] = system: histone deacetylase (HDAC); conditions: cited from earlier work
NMRI mice = conditions: injected on GD 8 with 3 mmol/kg; cited from earlier work
mouse = conditions: source not given; cited from earlier work
[6] = system: patients with bipolar disorder; conditions: Phase IIb; cited from earlier work
[7] = 1/3.28 of LD50 (VCD 304.6 mg/kg) p.o. GD 4–17
[8] = 1/4.36 of LD50 (RIS 14.5, VCD 229.2 mg/kg) p.o. GD 4–17
[9] = 1/6.54 of LD50 (RIS 9.6, OLA 32.1, VCD 152.8 mg/kg) p.o. GD 4–17

Structure (SMILES): CCC(C)C(CC)C(N)=O (stereo not drawn) [VCD, 2-ethyl-3-methylpentamide]
- Dams net weight gain (pregnant SWV mice [1]; [7]): 8.6 ± 1.8 grams
- Dams weight GD 18 (pregnant SWV mice [1]; [7]): 48.2 ± 2.9 grams
- Dams weight gain (pregnant SWV mice [1]; [7]): 20.5 ± 3.5 grams
- Dams net weight gain (pregnant SWV mice [1]; [8]): 7.8 ± 2.1 grams
- Dams weight GD 18 (pregnant SWV mice [1]; [8]): 47.3 ± 4.2 grams
- Dams weight gain (pregnant SWV mice [1]; [8]): 20.1 ± 2.9 grams
- Dams net weight gain (pregnant SWV mice [1]; [9]): 7.9 ± 2.1 grams
- Dams weight GD 18 (pregnant SWV mice [1]; [9]): 48.5 ± 3.4 grams
- Dams weight gain (pregnant SWV mice [1]; [9]): 20.2 ± 3.0 grams
- Fetuses sex ratio F/M (pregnant SWV mice [2]; [7]): 57/73
- Dead fetuses/litter (pregnant SWV mice [2]; [7]): 0.1 ± 0.2
- Fetus weight (pregnant SWV mice [2]; [7]): 0.91 ± 0.06 g
- Implantations/litter (pregnant SWV mice [2]; [7]): 14.5 ± 1.7
- Live fetuses/litter (pregnant SWV mice [2]; [7]): 13.2 ± 2.8
- Resorptions/litter (pregnant SWV mice [2]; [7]): 1.2 ± 1.4
- Fetuses sex ratio F/M (pregnant SWV mice [2]; [8]): 58/77
- Dead fetuses/litter (pregnant SWV mice [2]; [8]): 0.1 ± 0.3
- Fetus weight (pregnant SWV mice [2]; [8]): 0.90 ± 0.07 g
- Implantations/litter (pregnant SWV mice [2]; [8]): 14.8 ± 1.6
- Live fetuses/litter (pregnant SWV mice [2]; [8]): 13.7 ± 2.0
- Resorptions/litter (pregnant SWV mice [2]; [8]): 0.9 ± 0.8
- Fetuses sex ratio F/M (pregnant SWV mice [2]; [9]): 71/73
- Dead fetuses/litter (pregnant SWV mice [2]; [9]): 0.2 ± 0.4
- Fetus weight (pregnant SWV mice [2]; [9]): 0.91 ± 0.07 g
- Implantations/litter (pregnant SWV mice [2]; [9]): 14.9 ± 1.7
- Live fetuses/litter (pregnant SWV mice [2]; [9]): 13.8 ± 2.1
- Resorptions/litter (pregnant SWV mice [2]; [9]): 1.0 ± 0.9
- All vertebra: incomplete ossification, affected fetuses (SWV mouse fetuses [3]; [7]): 0
- Cervical vertebra: ossified fusion of centrums, affected fetuses (SWV mouse fetuses [3]; [7]): 1/1
- Cervical vertebra: ossified fusion of centrums, affected litters (SWV mouse fetuses [3]; [7]): 1/1
- Fetuses with skeletal abnormalities, % (SWV mouse fetuses [3]; [7]): 8.6%
- Fibula: bent, affected fetuses (SWV mouse fetuses [3]; [7]): 0
- Metacarpal: absent ossification, affected fetuses (SWV mouse fetuses [3]; [7]): 1/1
- Metacarpal: absent ossification, affected litters (SWV mouse fetuses [3]; [7]): 1/1
- Metacarpal: incomplete ossification, affected fetuses (SWV mouse fetuses [3]; [7]): 0
- Metatarsal: absent ossification, affected fetuses (SWV mouse fetuses [3]; [7]): 1/1
- Metatarsal: absent ossification, affected litters (SWV mouse fetuses [3]; [7]): 1/1
- Metatarsal: incomplete ossification, affected fetuses (SWV mouse fetuses [3]; [7]): 0
- Ribs: absent 13th, affected fetuses (SWV mouse fetuses [3]; [7]): 0
- Ribs: branched, affected fetuses (SWV mouse fetuses [3]; [7]): 0
- Skull: incomplete ossification, affected fetuses (SWV mouse fetuses [3]; [7]): 0
- Skull: interparietal incomplete ossification, affected fetuses (SWV mouse fetuses [3]; [7]): 1/1
- Skull: interparietal incomplete ossification, affected litters (SWV mouse fetuses [3]; [7]): 1/1
- Skull: parietal incomplete ossification, affected fetuses (SWV mouse fetuses [3]; [7]): 0
- Skull: supraoccipital incomplete ossification, affected fetuses (SWV mouse fetuses [3]; [7]): 0
- Sternebra: absent ossification, affected fetuses (SWV mouse fetuses [3]; [7]): 1/1
- Sternebra: absent ossification, affected litters (SWV mouse fetuses [3]; [7]): 1/1
- Sternebra: incomplete ossification, affected fetuses (SWV mouse fetuses [3]; [7]): 1/1
- Sternebra: incomplete ossification, affected litters (SWV mouse fetuses [3]; [7]): 1/1
- Sternebra: misaligned, affected fetuses (SWV mouse fetuses [3]; [7]): 0
- Sternebra: misshapen, affected fetuses (SWV mouse fetuses [3]; [7]): 3
- Sternebra: misshapen, affected litters (SWV mouse fetuses [3]; [7]): 2
- Whole skeletal system: incomplete ossification, affected fetuses (SWV mouse fetuses [3]; [7]): 0
- All vertebra: incomplete ossification, affected fetuses (SWV mouse fetuses [3]; [8]): 0
- Cervical vertebra: ossified fusion of centrums, affected fetuses (SWV mouse fetuses [3]; [8]): 0
- Fibula: bent, affected fetuses (SWV mouse fetuses [3]; [8]): 1/1
- Fibula: bent, affected litters (SWV mouse fetuses [3]; [8]): 1/1
- Metacarpal: absent ossification, affected fetuses (SWV mouse fetuses [3]; [8]): 0
- Metacarpal: incomplete ossification, affected fetuses (SWV mouse fetuses [3]; [8]): 0
- Metatarsal: absent ossification, affected fetuses (SWV mouse fetuses [3]; [8]): 0
- Metatarsal: incomplete ossification, affected fetuses (SWV mouse fetuses [3]; [8]): 0
- Ribs: absent 13th, affected fetuses (SWV mouse fetuses [3]; [8]): 3/3
- Ribs: absent 13th, affected litters (SWV mouse fetuses [3]; [8]): 3/3
- Ribs: branched, affected fetuses (SWV mouse fetuses [3]; [8]): 1/1
- Ribs: branched, affected litters (SWV mouse fetuses [3]; [8]): 1/1
- Skull: incomplete ossification, affected fetuses (SWV mouse fetuses [3]; [8]): 1/1
- Skull: incomplete ossification, affected litters (SWV mouse fetuses [3]; [8]): 1/1
- Skull: interparietal incomplete ossification, affected fetuses (SWV mouse fetuses [3]; [8]): 0
- Skull: parietal incomplete ossification, affected fetuses (SWV mouse fetuses [3]; [8]): 0
- Skull: supraoccipital incomplete ossification, affected fetuses (SWV mouse fetuses [3]; [8]): 0
- Sternebra: absent ossification, affected fetuses (SWV mouse fetuses [3]; [8]): 0
- Sternebra: incomplete ossification, affected fetuses (SWV mouse fetuses [3]; [8]): 3
- Sternebra: incomplete ossification, affected litters (SWV mouse fetuses [3]; [8]): 2
- Sternebra: misaligned, affected fetuses (SWV mouse fetuses [3]; [8]): 0
- Sternebra: misshapen, affected fetuses (SWV mouse fetuses [3]; [8]): 6
- Sternebra: misshapen, affected litters (SWV mouse fetuses [3]; [8]): 4
- All vertebra: incomplete ossification, affected fetuses (SWV mouse fetuses [3]; [9]): 0
- Cervical vertebra: ossified fusion of centrums, affected fetuses (SWV mouse fetuses [3]; [9]): 0
- Fibula: bent, affected fetuses (SWV mouse fetuses [3]; [9]): 0
- Metacarpal: absent ossification, affected fetuses (SWV mouse fetuses [3]; [9]): 0
- Metacarpal: incomplete ossification, affected fetuses (SWV mouse fetuses [3]; [9]): 0
- Metatarsal: absent ossification, affected fetuses (SWV mouse fetuses [3]; [9]): 0
- Metatarsal: incomplete ossification, affected fetuses (SWV mouse fetuses [3]; [9]): 0
- Ribs: absent 13th, affected fetuses (SWV mouse fetuses [3]; [9]): 3
- Ribs: absent 13th, affected litters (SWV mouse fetuses [3]; [9]): 1
- Ribs: branched, affected fetuses (SWV mouse fetuses [3]; [9]): 1/1
- Ribs: branched, affected litters (SWV mouse fetuses [3]; [9]): 1/1
- Skull: incomplete ossification, affected fetuses (SWV mouse fetuses [3]; [9]): 6
- Skull: incomplete ossification, affected litters (SWV mouse fetuses [3]; [9]): 2
- Skull: interparietal incomplete ossification, affected fetuses (SWV mouse fetuses [3]; [9]): 1/1
- Skull: interparietal incomplete ossification, affected litters (SWV mouse fetuses [3]; [9]): 1/1
- Skull: parietal incomplete ossification, affected fetuses (SWV mouse fetuses [3]; [9]): 0
- Skull: supraoccipital incomplete ossification, affected fetuses (SWV mouse fetuses [3]; [9]): 1/1
- Skull: supraoccipital incomplete ossification, affected litters (SWV mouse fetuses [3]; [9]): 1/1
- Sternebra: absent ossification, affected fetuses (SWV mouse fetuses [3]; [9]): 2/2
- Sternebra: absent ossification, affected litters (SWV mouse fetuses [3]; [9]): 2/2
- Sternebra: incomplete ossification, affected fetuses (SWV mouse fetuses [3]; [9]): 0
- Sternebra: misaligned, affected fetuses (SWV mouse fetuses [3]; [9]): 1/1
- Sternebra: misaligned, affected litters (SWV mouse fetuses [3]; [9]): 1/1
- Sternebra: misshapen, affected fetuses (SWV mouse fetuses [3]; [9]): 0
- Fetuses with skeletal abnormalities, % (SWV mouse fetuses [3]; mouse, in vivo): 10.4% and 11.1%
- Whole skeletal system: incomplete ossification, affected fetuses (SWV mouse fetuses [3]; mouse, in vivo): 0
- Cleft palate, affected fetuses (SWV mouse fetuses [4]; female, SWV): 0
- Dilated renal pelvis, affected litters (SWV mouse fetuses [4]; female, SWV): 2/2
- Exencephaly, affected fetuses (SWV mouse fetuses [4]; female, SWV): 0
- Malposition stomach, affected litters (SWV mouse fetuses [4]; female, SWV): 1/1
- Right aortic arch, affected litters (SWV mouse fetuses [4]; female, SWV): 1/1 ^b
- Overall teratogenicity under the experimental conditions (SWV mouse fetuses [4]; po): did not show any teratogenic effect
- Ki, uncompetitive inhibition of acylation of arachidonic acid (acyl-CoA synthetase 4): 6.38 mM
- Anticonvulsant potency relative to VPA (various animal models): 3–10 times
- Inhibition of HDACs [5]: does not inhibit
- Embryotoxicity (NMRI mice): did not induce any embryotoxicity
- LD50 mouse, oral (mouse): 999 mg/kg
- Tolerated daily dose with minimal side effects [6]: 1500 mg
